Test results as given in patent US11944094B1, “Seed germination activator for control of broomrape” (KING FAISAL UNIVERSITY, priority 2023, dated 2024).

Tested on: broomrape
Experiment: Field experiment: reduction of broomrape biomass by BIP in irrigation water before planting host crops
Assay type: in vivo, Orobanche
Method: Testing was performed to determine the effect of BIP in different plant species as host crops (faba bean, tomato, and potato), soil type (sand soil and light clay soil), application time (late October and late February), and different climactic regions (Al Behera governate and Al Noubareia), using various concentrations of the substrate (100-500 ppm) to increase the inhibitory effect. […] Thus, BIP, when formulated and administered at 100-500 ppm with the irrigation water is an effective bio agent for controlling broomrape.

CCCCOC(=O)c1ccccc1C(=O)OCC(C)C [BIP, butylisobutylphthalate]
reduced broomrape biomass (300 ppm in irrigation water 8-10 days before cultivation, light clay soil for faba beans and potato, sand soil for faba bean, 20th of October): 65% | reduction in broomrape biomass (400 ppm in irrigation water 10 days before planting, sand soil, 15th of February, tomato plants): 69% | increase of inhibition effect relative to the activity observed at 400 ppm (BIP 500 ppm versus 400 ppm): ≤ 10% | % Reduction Broomrape Biomass (Faba bean (Misr-3), cultivation October, light clay soil, BIP 300 ppm): 65.0% | % Reduction Broomrape Biomass (Faba bean (Misr-3), cultivation October, sandy soil, BIP 300 ppm): 59.8% | % Reduction Broomrape Biomass (Potato (Yarla), cultivation September, light clay soil, BIP 325 ppm): 62.3% | % Reduction Broomrape Biomass (Tomato (Star Valley), cultivation February, sandy soil, BIP 400 ppm): 71.8% | reduction of broomrape (lower concentrations of BIP (100-200 ppm)): 15%-18%
